PubChem BioAssay AID1963844 (Molecular Pharmacology Branch, DTP, NCI, 2024)

Tested on: 422866-222-R5-J1-PDC complex spheroid viability
Test: Anticancer human tumor 422866-222-R5-J1-PDC patient-derived pancreatic adenocarcinoma cell line growth inhibition [POLQ]
Details: for IC50: curve of first compound; for viability, T/C: stronger effect = lower value
How it was run: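 Complex spheroid viability model combining PDC tumour cells with endothelial (HUVEC) and MSC stromal cells. Novobiocin, ART-558 or RP6685 were tested singly and in combination with standard and investigational anticancer drugs. Each was titrated in half-log steps from near clinical Cmax, or from 10 microM where Cmax was unknown.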

[1] = second compound 0.0316 µM, first compound 0.0316 µM
[2] = second compound 0.0316 µM, first compound 0.1 µM
[3] = second compound 0.0316 µM, first compound 0.316 µM
[4] = second compound 0.0316 µM, first compound 1 µM
[5] = second compound 0.0316 µM, first compound 3.16 µM
[6] = second compound 0.0316 µM, first compound 10 µM
[7] = second compound 0.1 µM, first compound 0.0316 µM
[8] = second compound 0.1 µM, first compound 0.1 µM
[9] = second compound 0.1 µM, first compound 0.316 µM
[10] = second compound 0.1 µM, first compound 1 µM
[11] = second compound 0.1 µM, first compound 3.16 µM
[12] = second compound 0.1 µM, first compound 10 µM
[13] = second compound 0.316 µM, first compound 0.0316 µM
[14] = second compound 0.316 µM, first compound 0.1 µM
[15] = second compound 0.316 µM, first compound 0.316 µM
[16] = second compound 0.316 µM, first compound 1 µM
[17] = second compound 0.316 µM, first compound 3.16 µM
[18] = second compound 0.316 µM, first compound 10 µM
[19] = second compound 1 µM, first compound 0.0316 µM
[20] = second compound 1 µM, first compound 0.1 µM
[21] = second compound 1 µM, first compound 0.316 µM
[22] = second compound 1 µM, first compound 1 µM
[23] = second compound 1 µM, first compound 3.16 µM
[24] = second compound 1 µM, first compound 10 µM
[25] = second compound 3.16 µM, first compound 0.0316 µM
[26] = second compound 3.16 µM, first compound 0.1 µM
[27] = second compound 3.16 µM, first compound 0.316 µM
[28] = second compound 3.16 µM, first compound 1 µM
[29] = second compound 3.16 µM, first compound 3.16 µM
[30] = second compound 3.16 µM, first compound 10 µM
[31] = second compound 10 µM, first compound 0.0316 µM
[32] = second compound 10 µM, first compound 0.1 µM
[33] = second compound 10 µM, first compound 0.316 µM
[34] = second compound 10 µM, first compound 1 µM
[35] = second compound 10 µM, first compound 3.16 µM
[36] = second compound 10 µM, first compound 10 µM
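Note: spheroids exposed to compounds for one week before readout.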
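Throughout, for viability, T/C: percent of DMSO vehicle wells luminescence so 100% = untreated viability.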

`C#Cc1c(F)ccc2cc(O)cc(-c3ncc4c(N5CC6CCC(C5)N6)nc(OCC56CCCN5CC(F)C6)nc4c3F)c12` (stereo unspecified) + Nc1ccc(C#CCN(C(=O)Cc2ncc(C(F)(F)F)cc2C(F)(F)F)c2ccc(F)cc2)nn1 gave an IC50 (second compound 0.0316 µM) of 733 nM, an IC50 (second compound 0.1 µM) of 727 nM and an IC50 (second compound 0.316 µM) of 813 nM. For the same compound, the IC50 (second compound 1 µM) was 750 nM, the IC50 (second compound 3.16 µM) was 646 nM and the IC50 (second compound 10 µM) was 619 nM. It also gave a viability, T/C [1] of 95.4%, a viability, T/C [2] of 103% and a viability, T/C [3] of 62.8%. For the same compound, the viability, T/C [4] was 48.7%, the viability, T/C [5] was 26.8% and the viability, T/C [6] was 26%. It also gave a viability, T/C [7] of 101%, a viability, T/C [8] of 71.5% and a viability, T/C [9] of 67.6%. It also gave a viability, T/C [10] of 43.4%, a viability, T/C [11] of 32.1% and a viability, T/C [12] of 21.7%. For the same compound, the viability, T/C [13] was 88.2%, the viability, T/C [14] was 78.4% and the viability, T/C [15] was 66.2%. It also gave a viability, T/C [16] of 44.3%, a viability, T/C [17] of 37.1% and a viability, T/C [18] of 27.9%. For the same compound, the viability, T/C [19] was 102%, the viability, T/C [20] was 89.4% and the viability, T/C [21] was 67.4%. For the same compound, the viability, T/C [22] was 44.3%, the viability, T/C [23] was 30.6% and the viability, T/C [24] was 26%. It also gave a viability, T/C [25] of 93.1%, a viability, T/C [26] of 93% and a viability, T/C [27] of 57%. It also gave a viability, T/C [28] of 48.2%, a viability, T/C [29] of 26.6% and a viability, T/C [30] of 27.9%. For the same compound, the viability, T/C [31] was 89.6%, the viability, T/C [32] was 92.2% and the viability, T/C [33] was 62.3%. The viability, T/C [34] was 41.7%, the viability, T/C [35] was 35.3% and the viability, T/C [36] was 27.7%.
`C=CC(=O)N1CCN(c2nc(=O)n(-c3c(C)ccnc3C(C)C)c3nc(-c4c(O)cccc4F)c(F)cc23)C(C)C1` (stereo unspecified) + Nc1ccc(C#CCN(C(=O)Cc2ncc(C(F)(F)F)cc2C(F)(F)F)c2ccc(F)cc2)nn1 was tested, and the IC50 (second compound 0.0316 µM) was < 31.6 nM, the IC50 (second compound 0.1 µM) was < 31.6 nM and the IC50 (second compound 0.316 µM) was < 31.6 nM. For the same compound, the IC50 (second compound 1 µM) was < 31.6 nM, the IC50 (second compound 3.16 µM) was < 31.6 nM and the IC50 (second compound 10 µM) was < 31.6 nM. It also gave a viability, T/C [1] of 32.5%, a viability, T/C [2] of 28.5% and a viability, T/C [3] of 28.3%. The viability, T/C [4] was 28.5%, the viability, T/C [5] was 27.4% and the viability, T/C [6] was 23.7%. It also gave a viability, T/C [7] of 32%, a viability, T/C [8] of 31.2% and a viability, T/C [9] of 24%. The viability, T/C [10] was 25.7%, the viability, T/C [11] was 23.7% and the viability, T/C [12] was 22.4%. It also gave a viability, T/C [13] of 40.1%, a viability, T/C [14] of 27.8% and a viability, T/C [15] of 29%. For the same compound, the viability, T/C [16] was 24.4%, the viability, T/C [17] was 25.1% and the viability, T/C [18] was 24.2%. It also gave a viability, T/C [19] of 34%, a viability, T/C [20] of 33.1% and a viability, T/C [21] of 25.9%. For the same compound, the viability, T/C [22] was 23.2%, the viability, T/C [23] was 22.2% and the viability, T/C [24] was 21.1%. It also gave a viability, T/C [25] of 33.4%, a viability, T/C [26] of 27.7% and a viability, T/C [27] of 29.6%. For the same compound, the viability, T/C [28] was 24.5%, the viability, T/C [29] was 24.4% and the viability, T/C [30] was 29.1%. It also gave a viability, T/C [31] of 30.8%, a viability, T/C [32] of 32.6% and a viability, T/C [33] of 32.4%. The viability, T/C [34] was 26.3%, the viability, T/C [35] was 24.9% and the viability, T/C [36] was 27.6%.
For `CC1COCCN1c1cc(C2(O)CC3CCC(C2)O3)c2cnn(-c3ccn[nH]3)c2n1` (stereo unspecified) + Nc1ccc(C#CCN(C(=O)Cc2ncc(C(F)(F)F)cc2C(F)(F)F)c2ccc(F)cc2)nn1, the IC50 (second compound 0.0316 µM) was > 10000 nM, the IC50 (second compound 0.1 µM) was < 31.6 nM and the IC50 (second compound 0.316 µM) was < 31.6 nM. The IC50 (second compound 1 µM) was > 10000 nM, the IC50 (second compound 3.16 µM) was 10000 nM and the IC50 (second compound 10 µM) was < 31.6 nM. The viability, T/C [1] was 72%, the viability, T/C [2] was 39.4% and the viability, T/C [3] was 40.7%. The viability, T/C [4] was 74.5%, the viability, T/C [5] was 73.5% and the viability, T/C [6] was 61.1%. It also gave a viability, T/C [7] of 58.2%, a viability, T/C [8] of 39.4% and a viability, T/C [9] of 48.5%. For the same compound, the viability, T/C [10] was 71.6%, the viability, T/C [11] was 83.6% and the viability, T/C [12] was 63.8%. The viability, T/C [13] was 61.3%, the viability, T/C [14] was 37% and the viability, T/C [15] was 42.2%. The viability, T/C [16] was 74.8%, the viability, T/C [17] was 73.8% and the viability, T/C [18] was 59.9%. For the same compound, the viability, T/C [19] was 64.3%, the viability, T/C [20] was 39.5% and the viability, T/C [21] was 37.3%. For the same compound, the viability, T/C [22] was 71.4%, the viability, T/C [23] was 65.5% and the viability, T/C [24] was 57.9%. It also gave a viability, T/C [25] of 97.4%, a viability, T/C [26] of 38.7% and a viability, T/C [27] of 36.9%. For the same compound, the viability, T/C [28] was 77.2%, the viability, T/C [29] was 63.2% and the viability, T/C [30] was 69%. For the same compound, the viability, T/C [31] was 60.7%, the viability, T/C [32] was 41.5% and the viability, T/C [33] was 47.1%. The viability, T/C [34] was 83.8%, the viability, T/C [35] was 65.3% and the viability, T/C [36] was 63.4%.
